Laboratory results: ChEMBL document CHEMBL5154749 (Eur J Med Chem, 2022)

Key:
[1] = tested on: HT-29; assay: Induction of apoptosis in human HT-29 cells assessed as viable cells at 1 uM measured after 48 hrs in presence of AZD1390 by Annexin V-FITC/Propidium iodide staining based flow cytometry analysis (reference value: 95.33%); assay type: functional; conditions: read-out: Activity
[2] = AUC (0 to infinity) in Sprague-Dawley rat at 5 mg/kg, iv measured at 0.083 to 24 hrs by LC-MS/MS method; assay type: ADME, organism-based; parameters: dose 5 mg/kg, time upper 24 hrs, time lower 0.083 hrs, route iv; conditions: in vivo
[3] = tested on: LoVo; assay: Induction of apoptosis in human LoVo cells deficient in ATM assessed as late apoptotic cells at 3 uM measured after 24 hrs by Annexin V-FITC/Propidium iodide staining based flow cytometry analysis (reference value: 3.32%); assay type: functional
[4] = tested on: LoVo; assay: Induction of apoptosis in human LoVo cells deficient in ATM assessed as early apoptotic cells at 0.3 uM measured after 24 hrs by Annexin V-FITC/Propidium iodide staining based flow cytometric analysis (reference value: 4.20%); assay type: functional
[5] = tested on: HT-29; assay: Induction of apoptosis in human HT-29 cells assessed as viable cells at 3 uM measured after 48 hrs by Annexin V-FITC/Propidium iodide staining based flow cytometry analysis (reference value: 97.01%); assay type: functional; conditions: read-out: Activity
[6] = tested on: HT-29; assay: Induction of apoptosis in human HT-29 cells assessed as early apoptotic cells at 0.3 uM measured after 48 hrs in presence of AZD1390 by Annexin V-FITC/Propidium iodide staining based flow cytometry analysis (reference value: 3.81%); assay type: functional
[7] = target: T1, Serine/threonine-protein kinase ATR (Homo sapiens, UniProt Q13535); assay: Inhibition of human recombinant full length ATR using GST-cMyc-p53 as substrate incubated for 40 mins in presence of ATP by HTRF assay
Target sequence in this assay (Q13535 whole entry): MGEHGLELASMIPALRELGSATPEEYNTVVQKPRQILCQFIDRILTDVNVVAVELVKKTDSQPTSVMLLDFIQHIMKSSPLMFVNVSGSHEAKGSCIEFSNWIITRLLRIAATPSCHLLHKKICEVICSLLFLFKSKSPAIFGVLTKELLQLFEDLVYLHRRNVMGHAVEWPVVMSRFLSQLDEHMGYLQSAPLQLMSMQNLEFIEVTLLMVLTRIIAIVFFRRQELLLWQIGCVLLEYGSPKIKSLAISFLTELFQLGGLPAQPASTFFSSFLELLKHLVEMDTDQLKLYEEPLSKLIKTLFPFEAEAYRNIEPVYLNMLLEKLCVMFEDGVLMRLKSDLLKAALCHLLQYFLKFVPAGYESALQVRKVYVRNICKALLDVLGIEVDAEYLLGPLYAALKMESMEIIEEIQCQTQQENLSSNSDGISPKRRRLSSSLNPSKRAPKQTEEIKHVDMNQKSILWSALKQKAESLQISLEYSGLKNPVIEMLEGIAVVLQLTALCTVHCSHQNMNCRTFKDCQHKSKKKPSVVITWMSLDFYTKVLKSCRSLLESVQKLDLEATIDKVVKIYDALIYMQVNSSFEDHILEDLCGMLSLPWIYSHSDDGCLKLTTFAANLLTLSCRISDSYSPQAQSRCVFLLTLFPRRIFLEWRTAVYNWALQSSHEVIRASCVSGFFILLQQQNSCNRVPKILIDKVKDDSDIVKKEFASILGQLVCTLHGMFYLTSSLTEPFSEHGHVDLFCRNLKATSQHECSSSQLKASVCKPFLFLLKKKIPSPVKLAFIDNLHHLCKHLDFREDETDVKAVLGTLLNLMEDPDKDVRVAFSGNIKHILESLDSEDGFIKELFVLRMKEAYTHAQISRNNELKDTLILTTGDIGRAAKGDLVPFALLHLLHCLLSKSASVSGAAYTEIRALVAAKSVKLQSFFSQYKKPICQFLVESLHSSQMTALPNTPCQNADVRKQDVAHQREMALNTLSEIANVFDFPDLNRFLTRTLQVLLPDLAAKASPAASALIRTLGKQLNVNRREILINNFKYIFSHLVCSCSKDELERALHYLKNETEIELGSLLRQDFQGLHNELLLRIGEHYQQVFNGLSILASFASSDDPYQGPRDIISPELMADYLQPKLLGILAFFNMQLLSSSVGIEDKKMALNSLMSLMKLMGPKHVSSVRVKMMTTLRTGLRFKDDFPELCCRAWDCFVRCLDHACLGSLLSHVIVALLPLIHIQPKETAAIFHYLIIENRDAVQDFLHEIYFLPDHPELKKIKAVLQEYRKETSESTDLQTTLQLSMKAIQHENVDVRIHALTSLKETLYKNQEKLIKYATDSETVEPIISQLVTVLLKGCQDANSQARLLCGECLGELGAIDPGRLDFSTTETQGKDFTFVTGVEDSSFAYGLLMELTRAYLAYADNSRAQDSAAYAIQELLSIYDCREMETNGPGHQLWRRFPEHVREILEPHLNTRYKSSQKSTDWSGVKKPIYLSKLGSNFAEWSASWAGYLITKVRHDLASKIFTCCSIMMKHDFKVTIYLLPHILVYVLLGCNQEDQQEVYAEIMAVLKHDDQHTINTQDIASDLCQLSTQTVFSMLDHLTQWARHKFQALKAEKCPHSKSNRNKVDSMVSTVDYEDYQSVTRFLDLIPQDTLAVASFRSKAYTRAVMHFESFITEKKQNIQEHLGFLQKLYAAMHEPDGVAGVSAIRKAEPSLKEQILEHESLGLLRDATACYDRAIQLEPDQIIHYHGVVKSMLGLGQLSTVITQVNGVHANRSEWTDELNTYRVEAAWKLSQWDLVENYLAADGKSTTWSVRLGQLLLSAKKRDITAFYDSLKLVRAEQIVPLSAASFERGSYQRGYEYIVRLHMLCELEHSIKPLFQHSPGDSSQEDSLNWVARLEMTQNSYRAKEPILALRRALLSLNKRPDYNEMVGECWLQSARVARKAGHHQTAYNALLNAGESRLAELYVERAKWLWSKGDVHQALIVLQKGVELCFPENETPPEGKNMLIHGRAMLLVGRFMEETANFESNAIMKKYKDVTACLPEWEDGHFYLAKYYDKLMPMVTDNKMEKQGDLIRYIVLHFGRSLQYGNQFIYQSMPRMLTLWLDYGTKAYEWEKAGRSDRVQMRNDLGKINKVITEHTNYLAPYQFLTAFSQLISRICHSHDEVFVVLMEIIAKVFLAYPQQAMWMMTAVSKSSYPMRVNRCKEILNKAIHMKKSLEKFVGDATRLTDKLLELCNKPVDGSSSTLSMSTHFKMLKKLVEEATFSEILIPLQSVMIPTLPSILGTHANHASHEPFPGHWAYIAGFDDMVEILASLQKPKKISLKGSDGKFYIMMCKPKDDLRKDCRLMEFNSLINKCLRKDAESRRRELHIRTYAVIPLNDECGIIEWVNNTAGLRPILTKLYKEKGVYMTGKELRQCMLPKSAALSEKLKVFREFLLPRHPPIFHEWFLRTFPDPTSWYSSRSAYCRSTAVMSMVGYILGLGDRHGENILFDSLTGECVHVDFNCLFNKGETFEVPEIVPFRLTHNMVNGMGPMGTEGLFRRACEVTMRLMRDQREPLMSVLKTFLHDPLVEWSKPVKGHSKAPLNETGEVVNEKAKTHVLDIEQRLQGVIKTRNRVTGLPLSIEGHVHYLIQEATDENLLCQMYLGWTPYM

[8] = tested on: LoVo; assay: Induction of apoptosis in human LoVo cells deficient in ATM assessed as late apoptotic cells at 0.3 uM measured after 24 hrs by Annexin V-FITC/Propidium iodide staining based flow cytometry analysis (reference value: 3.32%); assay type: functional
[9] = Half life in Sprague-Dawley rat at 5 mg/kg, iv measured at 0.083 to 24 hrs by LC-MS/MS method; assay type: ADME, organism-based; conditions: in vivo, time 0.083-24 hrs
[10] = target: T1, Serine/threonine-protein kinase ATR; assay: Inhibition of ATR signalling in ATM-deficient human LoVo cells assessed as inhibition of Chk1 phosphorylation incubated for 1 hr followed by hydroxyurea addition measured after 4 hrs by Western blot analysis; assay type: cell-based; conditions: dose <= 3.0 µM, time 5.0 hrs, DDE = dose-dependent effect
Target sequence in this assay (Q13535 whole entry, looked up): as the sequence (Q13535 whole entry) above

[11] = tested on: LoVo; assay: Inhibition of colony formation in human LoVo cells assessed as inhibition of cell proliferation incubated for 24 hrs followed by culture medium replenishment with drug-free medium for every 72 hrs and measured after 14 days by crystal violet staining method; assay type: functional, cell-based; conditions: dose 0.03-3 µM, DDE = dose-dependent effect
[12] = tested on: SW-620; assay: Antiproliferative activity against ATM-deficient human SW-620 cells assessed as reduction in cell viability incubated for 72 hrs by MTT assay; assay type: functional, cell-based; conditions: dose 0.001-100 µM, DDE = dose-dependent effect
[13] = target: T1, Serine/threonine-protein kinase ATR; assay: Inhibition of ATR signalling in ATM-deficient human LoVo cells assessed as inhibition of ATR phosphorylation incubated for 1 hr followed by hydroxyurea addition measured after 4 hrs by Western blot analysis; assay type: cell-based; conditions: dose <= 3.0 µM, time 5.0 hrs, DDE = dose-dependent effect
Target sequence in this assay (Q13535 whole entry, looked up): as the sequence (Q13535 whole entry) above

[14] = tested on: LoVo; assay: Antimigratory activity in human LoVo cells assessed as suppression of cell migration measured up to 48 hrs by wound healing assay; assay type: functional, cell-based; conditions: dose <= 1.0 µM, DDE = dose-dependent effect
[15] = Tmax in Sprague-Dawley rat at 5 mg/kg, iv measured at 0.083 to 24 hrs by LC-MS/MS method; assay type: ADME, organism-based; conditions: in vivo, time 0.083-24 hrs
[16] = tested on: LoVo; assay: Induction of apoptosis in human LoVo cells deficient in ATM assessed as necrotic cells at 0.3 uM measured after 24 hrs by Annexin V-FITC/Propidium iodide staining based flow cytometry analysis (reference value: 0.84%); assay type: functional
[17] = target: Serine/threonine-protein kinase B-raf (Homo sapiens, UniProt P15056); assay: Inhibition of human recombinant B-raf (416 to end residue) using myelin-Bas as substrate incubated for 40 mins in presence of ATP by scintillation counting method
Serine/threonine-protein kinase B-raf, sequence (P15056 whole entry): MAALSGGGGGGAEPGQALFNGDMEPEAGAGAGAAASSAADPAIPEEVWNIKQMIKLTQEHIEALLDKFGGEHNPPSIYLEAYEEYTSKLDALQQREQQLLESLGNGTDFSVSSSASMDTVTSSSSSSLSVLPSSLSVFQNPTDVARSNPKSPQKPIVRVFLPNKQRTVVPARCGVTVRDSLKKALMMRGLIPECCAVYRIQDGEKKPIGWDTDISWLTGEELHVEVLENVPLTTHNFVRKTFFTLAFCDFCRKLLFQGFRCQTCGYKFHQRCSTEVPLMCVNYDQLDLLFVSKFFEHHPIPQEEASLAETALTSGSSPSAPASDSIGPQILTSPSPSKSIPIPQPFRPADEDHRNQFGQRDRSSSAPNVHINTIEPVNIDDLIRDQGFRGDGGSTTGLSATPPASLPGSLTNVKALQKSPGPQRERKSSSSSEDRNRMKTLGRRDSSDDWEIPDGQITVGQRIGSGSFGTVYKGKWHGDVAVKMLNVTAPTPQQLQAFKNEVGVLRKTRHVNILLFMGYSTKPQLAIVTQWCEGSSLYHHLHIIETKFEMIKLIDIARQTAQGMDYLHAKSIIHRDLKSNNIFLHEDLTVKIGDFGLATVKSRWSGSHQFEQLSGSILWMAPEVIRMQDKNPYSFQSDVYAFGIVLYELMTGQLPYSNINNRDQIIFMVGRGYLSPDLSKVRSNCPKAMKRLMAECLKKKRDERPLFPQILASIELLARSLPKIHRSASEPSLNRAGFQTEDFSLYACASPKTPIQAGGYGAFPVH

[18] = Toxicity in NOD/SCID mouse xenografted with human LoVo cells assessed as damage in spleen at 50 to 100 mg/kg, po administered bid for 30 days measured after 2 hrs post last dose by H and E staining method; assay type: organism-based; conditions: in vivo, 720 h, dose 50-100 mg/kg, time 30 day
[19] = tested on: LoVo; assay: Induction of apoptosis in human LoVo cells deficient in ATM assessed as necrotic cells at 1 uM measured after 24 hrs by Annexin V-FITC/Propidium iodide staining based flow cytometry analysis (reference value: 0.84%); assay type: functional
[20] = tested on: HT-29; assay: Induction of apoptosis in human HT-29 cells assessed as early apoptotic cells at 3 uM measured after 48 hrs in presence of AZD1390 by Annexin V-FITC/Propidium iodide staining based flow cytometry analysis (reference value: 3.81%); assay type: functional

C[C@@H]1COCCN1c1nc(-c2cccc3[nH]ccc23)nc2ccc(-c3ccnn3C)cc12
viability at 1 µM [1]: 80.9%
AUC(0-inf) [2]: 3150 ng·h/mL
Activity [3]: 28.73%
Activity [4]: 24.04%
viability at 3 µM [5]: 93.1%
Activity [6]: 7.23%
IC50 [7]: 13 nM
Activity [8]: 17.38%
half-life [9]: 82.2 min
inhibition [10]: Dde
inhibition [11]: Dde
Activity [12]: Dde
inhibition [13]: Dde
Activity [14]: Dde
Tmax [15]: 4.8 min
Activity [16]: 2.71%
IC50 [17]: 1770 nM
Activity [18]: Non-Toxic
Activity [19]: 2.39%
Activity [20]: 15.88%
